Source: US10363229B2, “Methods and compositions for the treatment of cancer” (priority 2009, dated 2019)

Legend:
[1] = system: Mouse breast cancer cells (66Cl-1); test: Effects of methyl sulfone on estrogen receptor-negative breast cancer cells; type: cell-based
Procedure: Cloudman S-91 mouse melanoma cells (sub-clone M-3, CCL 53.1; American Type Culture Collection, Rockville, Md.) were grown in RMPI medium supplemented with 10% fetal bovine serum (Invitrogen, Inc) and 5% penicillin-streptomycin (Invitrogen, Inc). Mouse breast cancer cells (66Cl-1; American Type Culture Collection, Rockville, Md.) that are estrogen-receptor negative were grown in DMEM medium supplemented with 10% fetal bovine serum (Invitrogen, Inc) and 5% penicillin/streptomycin (Invitrogen, Inc). Human T-cell leukemic lymphocytes (CEM; American Type Culture Collection, Rockville, Md.) were grown in MEM medium supplemented with 7% fetal calf serum. Cultures were passaged twice a week. […]
Cells were plated onto sterile 12 mm coverslips in 35 mm tissue culture plates and incubated at 37° C., 5% CO2. After 24 hours, 2% methyl sulfone in medium or medium alone was added the plates and incubated at 37° C., 5% CO2 for 48 and 72 hrs. BrdU (Molecular Probes, Eugene, Oreg., USA; diluted ⅓ in RPMI medium) was added to each plate for 60 minutes at 37° C., 5% CO2. Coverslips were transferred to porcelain holders, washed with PBS, fixed in methanol/acetone (1:1), washed with PBS, and incubated in 5% BSA/PBS for 30 minutes at room temperature. To denature DNA, coverslips were placed in 0.1N HCL/1% Triton X-100 for 10 minutes at room temperature. After washing in PBS, cells were incubated with Alexa Fluor 488 anti-BrdU antibody (Molecular Probes, Eugene, Oreg.; diluted 1/20 in 5% BSA/PBS) for 60 minutes at room temperature. Cells were washed in PBS and incubated with Hoechst (diluted 1/1000 in PBS) in the dark at room temperature. After washing in PBS, cells were dipped in dH2O and drained onto Kim Wipes. SlowFade mounting medium (Molecular Probes, Eugene, Oreg.) was added to a glass slide and coverslips were placed face down onto slides and sealed with clear nail polish. Cells were viewed at the Center for Cell Analysis and Modeling, University of Connecticut Health Center, Farmington, Conn., with an Axioplan CCD Microscope equipped with a 40×1.3 NA FL objective lens, equipped with a Photometrics PXL-EEV37 high speed digital cooled CCD camera. Molecular Devices Metamorph was used for image acquisition.
Cells were plated on 8-35 mm plates that contained base agar with and without 2% methyl sulfone. To make base agar, 1% agar (DNA grade; Difco Bacto Agar; Becton Dickenson and Company, Sparks, Md.), was mixed in water at room temperature, melted in a microwave, and cooled to 40° C. before using. For drug plates, 1% agar was combined (1:1) with 4% methyl sulfone in 2×RPMI medium with sodium bicarbonate supplemented with 10% FBS and 5% penicillin/streptomycin. For control plates, 1% agar was combined (1:1) with 2×RMPI medium. Agar +/−2% methyl sulfone was added to appropriate 35 mm tissue culture plates and stored overnight at 4° C. The next day top agar and cells were placed on top of the base agar. Top agar was made with 0.66% agar in water. The agar was melted in a microwave, cooled, and stored at 40° C. 2×RPMI medium and 4% methyl sulfone was also stored at 40° C. Cells were trypsinized and counted for a final concentration of 5×10^3 cells/plate. Cell counts were adjusted to 2×10^5 cells/ml and 0.05 ml of the cell suspension was added to 15 ml centrifuge tubes (2 each). Base agar plates were removed from 4° C. and allowed to warm to room temperature for approximately 30 minutes prior to plating. For plating control cells, 2×RPMI medium and 0.66% agar were added to the tube of cell suspension, gently mixed, and placed on top of control base agar plates. For plating cells in 2% methyl sulfone, 4% methyl sulfone (in 2×RMPI medium) and 0.66% agar was added to the tube of cell suspension, mixed gently, and placed on top of the drug base agar plates. Cells were incubated in the 37° C., 5% CO2 incubator for 10-14 days. Plates were stained with 0.005% crystal violet for 1 hour. Colonies were photographed and counted with a dissecting microscope. […]

[2] = system: microtubules in melanoma cells; test: Immunofluorescence of microtubules, incl. vinblastine stability test; type: cell-based, mouse
Procedure: Cells were plated in 6-100 mm tissue culture plates, each containing 1 polylysine-coated 10-well slide, or plated onto polylysine-coated coverslips. Once cells were approximately 50% confluent, 2% methyl sulfone was added to cells for 10, 30, 60, 90, and 120 minutes. At each time point cells were placed in microtubule stabilizing buffer ( ) for 10 minutes followed by incubation in −20° C. methanol for 5 minutes. Cells were washed twice in 0.1% Triton X-100 in PBS at room temperature, then incubated with mouse monoclonal anti-alpha-tubulin antibody (Santa Cruz Biotech, Calif.; diluted 1/200 in 1% BSA/PBS) for 1.5 hours. Cells were washed 5 times in 0.1% Triton X-100/PBS, 3 minutes each. Cells were incubated with secondary antibody (Alexa Fluor 568 rabbit anti-mouse antibody; diluted 1/100 in 1%/PBS) for 30 minutes in the dark. Cells were washed five times in 0.1% Triton X-100/PBS, three minutes each. Cells were washed two times in PBS at 2 minute intervals and incubated with DAPI (1 μg/ml in PBS) for 5 minutes at room temperature and in the dark. Cells were washed in PBS for one minute. SlowFade was added to glass slides, coverslips were placed cell side down and sealed with nail polish. Microtubules were viewed at the Center for Cell Analysis and Modeling, University of Connecticut Health Center, Farmington, Conn., with an Axioplan CCD Microscope equipped with a 40×1.3 NA FL objective lens and Photometrics PXL-EEV37 high speed digital cooled CCD camera via Metamorph image acquisition and analysis software (Universal Imaging Corp., Downington, Pa.).
One assay to test stability of microtubules is to give cells increasing concentrations of a microtubule-disassembly drug and use immunofluorescence microscopy to assess microtubule lengths (Caron et al). A higher concentration of drug will be required to disassemble the more stabilized microtubules. We used different concentrations of the anti-microtubule drug, vinblastine, to assess microtubule stability in control cells and cells incubated with 2% methyl sulfone.

methyl sulfone
DNA synthesis ([1]; 2% methyl sulfone): markedly reduced | cell growth anchorage dependence ([1]; 2% methyl sulfone): anchorage-dependent | contact inhibition ([1]; 2% methyl sulfone): contact inhibited | migration of cells through an extracellular matrix ([1]; 2% methyl sulfone): inhibited | mitochondrial activity ([1]; 2% methyl sulfone): decreased | senescence ([1]; 2% methyl sulfone): became senescent | wound healing ([1]; 2% methyl sulfone): proceeded normally | methyl sulfone concentration inducing apoptosis in breast cancer cells ([1]; breast cancer cells): above 2% | time to microtubule disassembly after adding drug ([2]; 2% methyl sulfone): ≤ 10 min | microtubules in the presence of vinblastine (stability) ([2]; 2% methyl sulfone plus 10^−7 M vinblastine): clearly visible | pattern of microtubule reassembly ([2]; 2% methyl sulfone, over the next two hours): re-appeared in an orderly pattern
